Assay results: patent US7883859B2, “Method for producing active and stable acetylcholinesterase bioassay element” (priority 2005, dated 2011)

Columns and labels:
acetylcholinesterase [1] = assay: Inhibition of the immobilized enzyme of the bioassay element by pesticides (FIG. 5); assay type: biochemical; settings: for detection sensitivity of the bioassay element (rank among five pesticides; carbofuran>naled>malathion>carbaryl=trichlorfon): at any same concentration
Description: (§1) The bioassay element of the present invention is referred to FIG. 1 which illustrates the structure of bioassay element in one embodiment of the present invention. The bioassay element includes a carrier 100, an enzyme 110 as a testing material, and a coating film 120. The carrier includes a membrane 101 and a stationary layer 102 applying on the membrane 101. The enzyme 110 is dispersed in the coating film 120 that covers on the surface of the stationary layer 102. The coating film 120 effectively increases the amount of the immobilized enzyme 110 and raises the activity of the enzyme 110 and fixes the enzyme 110 on the surface of the carrier. In the working example of the present invention, the enzyme acetylcholinesterase is selected, and the coating film 120 consists of casein, calcium ions, a color developer (DTNB), and trehalose. The stationary layer 102 consists of casein and calcium ions.
In the working example of the present invention, the stationary-layer mixed solution was prepared by mixing 120 mM of a calcium ion solution and 2.5% of a casein solution in a ratio of 1:14 by volume. The bioassay solution was prepared by mixing an enzyme solution and the mixed solution containing casein in a ratio of 5:7 by volume. The enzyme solution was prepared by mixing 1.52 U/μl of an enzyme and 5% of trehalose in a ratio of 2.61:108 by volume. The mixed solution containing casein was mixed with a color developer, 120 mM of a calcium ion solution and 4% of a casein solution in a ratio of (0.009 to 0.012):1:(6 to 7.75) (w/v/v).
The results of the inhibiting effect of several pesticides (with different concentrations) on the bioassay element of the present invention are referred to FIG. 5. […] At the same concentration, the higher inhibition represents that the enzyme has higher detection sensitivity to pesticide. […] Within the linear relationship between the concentration of each pesticide and the inhibition of the enzyme, a biosensor capable of quantitatively detecting pesticides in association with optical sensors can be designed.
Therefore, if the inhibition of the enzyme activity is greater than 30%, it should be very easy to distinguish the yellow-color level difference by human eyes. In addition, when the concentration of naled was greater than 3.5 ppm and the concentrations of malathion, trichlorfon and carbaryl were greater than 7 ppm, the inhibition of the enzyme activity would be greater than 60%. Thus, the color would become colorless.

acetylcholinesterase [2] = assay: Color change of the bioassay element against pesticides, judged by human eyes (FIG. 6); assay type: biochemical; settings: color changes from yellow to yellowish
Description: as §1
If the inhibition of the enzyme activity is greater than 60%, the color will become colorless. To discriminate the color change by human eyes, the concentrations of trichlorfon and carbaryl are about 3 ppm, malathion and naled are about 1 ppm, carbafuran is about 0.1 ppm.

| Compound | detection sensitivity of the bioassay element (rank among five pesticides; carbofuran>naled>malathion>carbaryl=trichlorfon) (acetylcholinesterase [1]) | inhibition of the enzyme activity (acetylcholinesterase [1]; pesticide concentration 1 ppm) [%] | concentration to discriminate the color change by human eyes (acetylcholinesterase [2]) | concentration dependence of inhibition of the enzyme activity (acetylcholinesterase [1]) | inhibition of the enzyme activity (acetylcholinesterase [1]; pesticide concentration 3 ppm) | concentration range with linear relationship between pesticide concentration and inhibition of the enzyme activity (acetylcholinesterase [1]) [ppm] | pesticide concentration above which the increase of inhibition is plateau (acetylcholinesterase [1]) | inhibition of the enzyme activity (acetylcholinesterase [1]; pesticide concentration about 0.1 ppm) [%] |
| --- | --- | --- | --- | --- | --- | --- | --- | --- |
| COP(=O)(OC)OC(Br)C(Cl)(Cl)Br (stereo not shown) [naled] | next | 39 | about 1 ppm |  |  |  |  |  |
| COP(=O)(OC)C(O)C(Cl)(Cl)Cl (stereo not shown) [trichlorfon] | lowest |  | about 3 ppm | increased with increasing concentrations | about 28% |  |  |  |
| CNC(=O)Oc1cccc2ccccc12 [carbaryl] | lowest |  | about 3 ppm | increased with increasing concentrations | about 28% |  |  |  |
| CNC(=O)Oc1cccc2c1OC(C)(C)C2 [carbofuran] | highest |  | about 0.1 ppm |  |  | 0 to 0.1 | greater than 0.1 ppm | 65 |
| CCOC(=O)CC(SP(=S)(OC)OC)C(=O)OCC (stereo not shown) [malathion] | next | 28 | about 1 ppm |  |  |  |  |  |
